Values after ≈ are worked out from the molar mass of the structure shown. Marks after values point to notes of the source that are not given here.
Columns and labels:
[1] = test system: AI-2 activity of APEC O78; assay: AI-2 bioluminescence indicator assay (V. harveyi BB170); settings: APEC O78, 100 µM
AI-2 activity of APEC O2 = assay: as above; settings: APEC O2, 100 µM
AI-2 activity of APEC O1 = assay: as above; settings: APEC O1, 100 µM
AI-2 activity of APEC O8 = assay: as above; settings: APEC O8, 100 µM
[2] = test system: AI-2 activity of APEC O15; assay: as above; settings: APEC O15, 100 µM
[3] = test system: AI-2 activity of APEC O18; assay: as above; settings: APEC O18, 100 µM
[4] = test system: AI-2 activity of APEC O35; assay: as above; settings: APEC O35, 100 µM
[5] = test system: AI-2 activity of APEC O109; assay: as above; settings: APEC O109, 100 µM
[6] = test system: AI-2 activity of APEC O115; assay: as above; settings: APEC O115, 100 µM
Rif^r APEC O78 [7] = assay: Wax moth (Galleria mellonella) larva infection model (AI-2 inhibitors)
Rif^r APEC O78 [8] = assay: In vivo screening of quorum sensing inhibitors in APEC infected broiler chickens
APEC O78 [9] = assay: Loss of 260/280 nm absorbing materials assay; format: cell-based, avian pathogenic Escherichia coli (APEC); settings: 2X MBC, 1 h, *P<0.05 vs DMSO; for Absorbance 260: 260 nm absorbing material in supernatant; for Absorbance 280: 280 nm absorbing material in supernatant
APEC O78 [10] = format: cell-based, avian pathogenic Escherichia coli (APEC)
APEC O1 = format: cell-based, avian pathogenic Escherichia coli (APEC); settings: APEC O1, M63 media; MIC/MBC
APEC O2 = format: cell-based, avian pathogenic Escherichia coli (APEC); settings: APEC O2, M63 media; MIC/MBC
APEC O8 = format: cell-based, avian pathogenic Escherichia coli (APEC); settings: APEC O8, M63 media; MIC/MBC
APEC O15 = format: cell-based, avian pathogenic Escherichia coli (APEC); settings: APEC O15, M63 media; MIC/MBC
APEC O18 = format: cell-based, avian pathogenic Escherichia coli (APEC); settings: APEC O18, M63 media; MIC/MBC
APEC O35 = format: cell-based, avian pathogenic Escherichia coli (APEC); settings: APEC O35, M63 media; MIC/MBC
APEC O115 = format: cell-based, avian pathogenic Escherichia coli (APEC); settings: APEC O115, M63 media; MIC/MBC
APEC O109 = format: cell-based, avian pathogenic Escherichia coli (APEC); settings: APEC O109, M63 media; MIC/MBC
APEC O78-53 = format: cell-based, avian pathogenic Escherichia coli (APEC); settings: APEC O78-53, M63 media; MIC/MBC
APEC O1-63 = format: cell-based, avian pathogenic Escherichia coli (APEC); settings: APEC O1-63, M63 media; MIC/MBC
APEC O2-211 = format: cell-based, avian pathogenic Escherichia coli (APEC); settings: APEC O2-211, M63 media; MIC/MBC
[11] = test system: biofilm embedded APEC O78; assay: MBEC High-throughput assay; format: cell-based, avian pathogenic Escherichia coli (APEC); settings: biofilm embedded APEC O78; superscript = multiple of MIC (footnote)
Method: Effect against biofilm embedded APEC. The effect of cidal SMs against biofilm embedded APEC was determined using MBEC High-throughput (HTP) assay (Innovotech Inc., AB, Canada). Briefly, 150 µL of 0.05 OD600 adjusted APEC O78 culture was aliquoted into each well of the MBEC device containing polystyrene pegs and incubated at 37° C. for 36 h in LB media under stationary condition. […] The plate was incubated in the dark for 18 h at 37° C. with rotation at 110 rpm. The DMSO (1%) and M63 media were used as positive and negative controls, respectively. Following incubation, MIC of SMs in challenged plate was recorded. The SMs exposed pegs were then transferred to a new 96-well plate containing PBS and sonicated for 30 mins (Aquasonic ultrasonic cleaner, VWR) to disrupt the biofilm. […] Biofilm embedded APEC bacteria were enumerated and minimum biofilm eradication concentration (MBEC) of […] were determined. Two independent experiments were conducted.

APEC O78 [12] = assay: Confocal microscopy bacterial cytological profiling; format: cell-based, avian pathogenic Escherichia coli (APEC); settings: 2X MBC
Method: Confocal and scanning electron microscopy. Confocal microscopy was used for bacterial cytological profiling (BCP) to identify the cellular pathways targeted by SMs as described previously. […] After incubation, treated cultures were centrifuged, washed, and resuspended in 100 μL PBS. […] Cultures were then centrifuged, washed, and resuspended in PBS to 1⁄10th volume of the original cultures.

[13] = test system: intracellular APEC O78 in Caco-2 cells; assay: Intracellular survival assay (cidal SMs); settings: O78, Caco-2, 6 h treatment; superscript = multiple of MIC
[14] = test system: intracellular APEC O78 in HD11 cells; assay: Intracellular survival assay (cidal SMs); settings: O78, HD11, 6 h treatment; superscript = multiple of MIC
[15] = test system: intracellular APEC O78 in THP-1 cells; assay: Intracellular survival assay (cidal SMs); settings: O78, THP-1, 6 h treatment; superscript = multiple of MIC
[16] = test system: intracellular APEC O2 in Caco-2 cells; assay: Intracellular survival assay (cidal SMs); settings: O2, Caco-2, 6 h treatment; superscript = multiple of MIC
[17] = test system: intracellular APEC O2 in HD11 cells; assay: Intracellular survival assay (cidal SMs); settings: O2, HD11, 6 h treatment; superscript = multiple of MIC
[18] = test system: intracellular APEC O2 in THP-1 cells; assay: Intracellular survival assay (cidal SMs); settings: O2, THP-1, 6 h treatment; superscript = multiple of MIC
[19] = test system: intracellular APEC O1 in Caco-2 cells; assay: Intracellular survival assay (cidal SMs); settings: O1, Caco-2, 6 h treatment; superscript = multiple of MIC
[20] = test system: intracellular APEC O1 in HD11 cells; assay: Intracellular survival assay (cidal SMs); settings: O1, HD11, 6 h treatment; superscript = multiple of MIC
[21] = test system: intracellular APEC O1 in THP-1 cells; assay: Intracellular survival assay (cidal SMs); settings: O1, THP-1, 6 h treatment; superscript = multiple of MIC
Rif^r APEC O78 [22] = assay: In vivo efficacy of growth inhibitors in APEC infected broiler chickens

## Cc1ccccc1N1CCN(C2CCCN(C(=O)c3ccc(F)c(Cl)c3)C2)CC1 (stereo not shown) [C2, 1-[1-{3-chloro-4-fluorbenzoyl)-3-piperdinyl]-4-(2-methylphenyl)piperazine]
[1]
  Inhibition % of AI-2 activity: 92%
AI-2 activity of APEC O2
  Inhibition % of AI-2 activity: 96%
AI-2 activity of APEC O1
  Inhibition % of AI-2 activity: 64%
AI-2 activity of APEC O8
  Inhibition % of AI-2 activity: 20%
[2]
  Inhibition % of AI-2 activity: 27%
[3]
  Inhibition % of AI-2 activity: 43%
[4]
  Inhibition % of AI-2 activity: 55%
[5]
  Inhibition % of AI-2 activity: 57%
[6]
  Inhibition % of AI-2 activity: 52%
Rif^r APEC O78 [7]; 48 h post treatment
  larval death: no larval death
Rif^r APEC O78 [7]; 72 h
  clearance of APEC in live larvae: 100%
Rif^r APEC O78 [8]; DMSO control mortality normalized to 100%
  reduction in chicken mortality: 50%
Rif^r APEC O78 [8]; oral gavage once a day, day 4 to day 8, DMSO control 66.7%
  Mortality rate (%): 33.3%
Rif^r APEC O78 [8]; vs DMSO treated control
  Reduction in APEC lesions severity, Air-sacs (%): 63.3%
  Reduction in APEC lesions severity, Heart (%): 37.5%
  Reduction in APEC lesions severity, Liver (%): 45.5%
  Reduction in APEC lesions severity, Lung (%): 88.9%

## O=C(O)CN(CCN(CC(=O)O)CC(=O)O)CC(=O)O [EDTA, reference compound]
APEC O78 [9]
  Absorbance 260: 4.00*
  Absorbance 280: 2.60

## COc1cc(CNCCc2ccc(C)cc2)ccc1OCC(O)CN1CCCC1 (stereo not shown) [SM3]
APEC O78 [10]; APEC O78
  MBC relative to MIC: identical to MIC
APEC O78 [10]; APEC O78, M63 media, MIC/MBC
  MIC: 100 µM (≈ 39.9 µg/mL)
APEC O78 [10]; APEC O78, M63 media, cell prints MIC/MBC
  MBC: 100 µM (≈ 39.9 µg/mL)
APEC O1
  MBC: 200 µM (≈ 79.7 µg/mL)
  MIC: 100 µM (≈ 39.9 µg/mL)
APEC O2
  MBC: 200 µM (≈ 79.7 µg/mL)
  MIC: 100 µM (≈ 39.9 µg/mL)
APEC O8
  MBC: 100 µM (≈ 39.9 µg/mL)
  MIC: 100 µM (≈ 39.9 µg/mL)
APEC O15
  MBC: 100 µM (≈ 39.9 µg/mL)
  MIC: 100 µM (≈ 39.9 µg/mL)
APEC O18
  MBC: 100 µM (≈ 39.9 µg/mL)
  MIC: 100 µM (≈ 39.9 µg/mL)
APEC O35
  MBC: 200 µM (≈ 79.7 µg/mL)
  MIC: 100 µM (≈ 39.9 µg/mL)
APEC O115
  MBC: 100 µM (≈ 39.9 µg/mL)
  MIC: 100 µM (≈ 39.9 µg/mL)
APEC O109
  MBC: 200 µM (≈ 79.7 µg/mL)
  MIC: 100 µM (≈ 39.9 µg/mL)
APEC O78-53
  MBC: 200 µM (≈ 79.7 µg/mL)
  MIC: 100 µM (≈ 39.9 µg/mL)
APEC O1-63
  MBC: 200 µM (≈ 79.7 µg/mL)
  MIC: 200 µM (≈ 79.7 µg/mL)
APEC O2-211
  MBC: 100 µM (≈ 39.9 µg/mL)
  MIC: 100 µM (≈ 39.9 µg/mL)
[11]
  MBEC: 50^b µM
APEC O78 [12]
  cytological profile (confocal, FM4-64 / SYTO-9): membrane pore formers
APEC O78 [9]
  Absorbance 260: 3.77
  Absorbance 280: 2.84*
[13]
  SMs intracellular APEC clearance concentration: 100^a µM
[14]
  SMs intracellular APEC clearance concentration: 100^a µM
[15]
  SMs intracellular APEC clearance concentration: 100^a µM
[16]
  SMs intracellular APEC clearance concentration: >200 µM
[17]
  SMs intracellular APEC clearance concentration: 200^b µM
[18]
  SMs intracellular APEC clearance concentration: 100^a µM
[19]
  SMs intracellular APEC clearance concentration: >200 µM
[20]
  SMs intracellular APEC clearance concentration: 200^b µM
[21]
  SMs intracellular APEC clearance concentration: 200^b µM
Rif^r APEC O78 [22]; average of liver, heart, lung and kidney, vs untreated control
  reduction of average APEC load in internal organs: either exacerbated or did not reduce
Rif^r APEC O78 [22]; untreated control = 100%
  reduction of APEC lesions severity (%), Air-sacs (airsacculitis): -29.4%
  reduction of APEC lesions severity (%), Heart (pericarditis): 4%
  reduction of APEC lesions severity (%), Liver (perihepatitis): -20%
  reduction of APEC lesions severity (%), Lung (lung congestion): 0%
Rif^r APEC O78 [22]; vs untreated control
  reduction of APEC load, Heart: -2.1 log CFU/g of tissues
  reduction of APEC load, Kidney: -1.4 log CFU/g of tissues
  reduction of APEC load, Liver: -1.8 log CFU/g of tissues
  reduction of APEC load, Lung: -2.0 log CFU/g of tissues
Rif^r APEC O78 [22]; weight of live chickens before necropsy minus weight before treatment
  Body weight gain (BWG): 254.58±95.03

— patent US20230355597A1, “COMPOUNDS, COMPOSITIONS, AND METHODS FOR THE TREATMENT AND PREVENTION OF AVIAN PATHOGENIC E. COLI (APEC)” (OHIO STATE INNOVATION FOUNDATION, priority 2018, published 2023)
